Results on two compounds are retold here after patent US20020015729A1, “COLONIC DELIVERY OF WEAK ACID DRUGS” (priority 1996, published 2002).

Data set [1] can be described thus: Solubility of the drug in the colonic pH range. Conditions: pH 4.5 to 8.0. The data set is classed as physicochemical.
Data set [2] can be described thus: Dissolution of ridogrel and sodium ridogrel from hard gelatin capsules, USP apparatus 2, 100 rpm, 900 mL phosphate buffer. The data set is classed as physicochemical. The note with it: 10 mg in size 2 hard gelatin capsule, pH 5, 6 and 7. The procedure: Into each of three size 2 hard gelatin capsules was weighed 10 mg of ridogrel. Into another three capsules was weighed 10 mg of the sodium ridogrel lyophilisate. The dissolution of ridogrel and sodium ridogrel into 900 mL of phosphate buffer at pH 5, 6 and 7 was tested (USP apparatus 2, 100 rpm).

In the case of `O=C(O)CCCCO/N=C(/c1cccnc1)c1cccc(C(F)(F)F)c1` [ridogrel, (E)-5-[[[3-pyridinyl[3-(trifluoromethyl)phenyl]methylene]amino]oxy]pentanoic acid], in data set [1], the “solubility in the colonic pH range” value was “low”. Take `O=C([O-])CCCCON=C(c1cccnc1)c1cccc(C(F)(F)F)c1.[Na+]` [sodium ridogrel]: the “dissolution rate as a function of pH” value in data set [2] is recorded as “largely independent of pH”; in data set [2] (listed as sodium salt of ridogrel), “greatly improved dissolution rate”.
